The text below walks through data of ChEMBL document CHEMBL3351773, “Effect of p-aminophenols on tyrosinase activity” (Bioorg Med Chem, 2014).

Broadly, the inhibition is the relative decrease from the control value, in per cent. As usually defined, the IC50 is the midpoint of a concentration-inhibition curve.

The source made the active and inactive calls. No cut-off for these calls is given here.

The target in test [1] is T1, Tyrosinase (Agaricus bisporus) (UniProt O42713).
T1 sequence (whole entry): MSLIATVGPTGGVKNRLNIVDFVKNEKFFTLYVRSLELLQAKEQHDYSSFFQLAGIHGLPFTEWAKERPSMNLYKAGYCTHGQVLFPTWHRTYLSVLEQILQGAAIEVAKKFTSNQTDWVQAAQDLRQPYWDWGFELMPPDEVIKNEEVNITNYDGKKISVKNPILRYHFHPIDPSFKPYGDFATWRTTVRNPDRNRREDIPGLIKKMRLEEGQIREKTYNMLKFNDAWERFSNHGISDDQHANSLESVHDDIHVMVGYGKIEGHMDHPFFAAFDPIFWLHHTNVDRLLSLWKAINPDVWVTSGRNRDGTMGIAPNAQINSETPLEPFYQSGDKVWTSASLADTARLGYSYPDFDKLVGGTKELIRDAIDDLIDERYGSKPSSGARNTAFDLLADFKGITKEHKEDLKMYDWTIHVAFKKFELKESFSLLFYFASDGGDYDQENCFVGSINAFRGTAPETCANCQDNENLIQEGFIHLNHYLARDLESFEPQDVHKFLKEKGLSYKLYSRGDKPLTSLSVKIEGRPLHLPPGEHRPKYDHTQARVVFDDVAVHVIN
The test can be described thus: (§1) Inhibition of mushroom tyrosinase using L-tyrosine as substrate by spectrophotometry.

Test [2] deals with T2, Tyrosinase (Agaricus bisporus, UniProt O42713).
T2 sequence (O42713 whole entry): T1 sequence (whole entry)
The test is described as §1.

Test [3] concerns the target T1, Tyrosinase (Agaricus bisporus). The test can be described thus: Non-competitive inhibition of mushroom tyrosinase using L-DOPA as substrate by Lineweaver-Burk double reciprocal plot method.
The target is the same in test [4]. Kind of test: (§2) Inhibition of mushroom tyrosinase using L-DOPA as substrate by spectrophotometry relative to control.
The target in test [5] is T2, Tyrosinase. The description is as §2.
For test [6], the target named is T1, Tyrosinase (Agaricus bisporus). Kind of test: Non-competitive inhibition of mushroom tyrosinase using L-tyrosine as substrate by Lineweaver-Burk double reciprocal plot method.
Test [7] has the same target. The test can be described thus: Inhibition of mushroom tyrosinase using L-DOPA as substrate at 200 uM by spectrophotometry relative to control.
Test [8] shares this target. Kind of test: Inhibition of mushroom tyrosinase using L-tyrosine as substrate at 200 uM by spectrophotometry relative to control.
Test [9] has the same target. The test can be described thus: Inhibition of mushroom tyrosinase using L-tyrosine as substrate at 100 uM by spectrophotometry relative to control.
Test [10] has the same target. The test can be described thus: Inhibition of mushroom tyrosinase using L-DOPA as substrate at 100 uM by spectrophotometry relative to control.

For the molecule `CCCCCCCCCCNc1ccc(O)cc1`, the inhibition entry in [1] and in test [4] was “Dose-dependent effect” each time. In addition, the IC50 at Tyrosinase [2] came to 5.7 µM; against Tyrosinase [5], 30.1 µM. The inhibition entry in test [3] and in test [6] was “Active” throughout.
On to `CCCCCCCCCCCCNc1ccc(O)cc1`, for which the inhibition result was “Dose-dependent effect” in test [1]; 45% in test [7]; 27% in test [8]; 23% in [9]; “Dose-dependent effect” in [4]; 25% in test [10]. Also, the IC50 on Tyrosinase [2] and against Tyrosinase [5] was more than 200 µM each time. For the same molecule, the inhibition entry in [3] and in test [6] was “Active” throughout.
